Four compounds from patent US7326420B2, “Benzoyl peroxide compositions having increased potency” (priority 2001, dated 2008) can be followed below.

In series [1] the test system is Staphylococcus aureus isolates. As to the kind of experiment: Checkerboard microdilution susceptibility test (MIC alone and in combination, FICI). The format is cell-based. The method, then: (§1) The object of this preliminary study was to discover the in vitro effect of the addition of benzoyl peroxide to terbinafine when tested against Candida albicans, Pseudomonas aeruginosa, and Staphylococcus aureus isolates, using a checkerboard microdilution method. […]
(§2) In this study, ten serial dilutions of terbinafine (starting at 32 μg/ml) and benzoyl peroxide (starting at 3%) were tested alone and in combination against ten Candida albicans isolates from the culture collection at the Center for Medical Mycology. Both susceptible and fluconazole-resistant strains were included. Two strains each of Pseudomonas aeruginosa and Staphylococcus aureus were also tested.
(§3) The individual minimum inhibitory concentrations (MICs) of terbinafine and BP against each isolate were determined according to the NCCLS M27-A2 and M07-A6 standards for yeasts and aerobic bacteria, respectively.
(§4) The effect of combining benzoyl peroxide with terbinafine was evaluated using a checkerboard assay. This test method is a modification of the microdilution antifungal susceptibility test (NCCLS M27A2) wherein two antifungal agents are combined in varying concentrations to determine whether they have a synergistic, additive, or antagonistic effect on the respective minimum inhibitory concentration (MIC) values.
(§5) Two antifungal agents were serially diluted in RPMI to produce ten concentrations of the drugs under investigation. The range was chosen to include achievable serum levels of the drugs. The two drugs were then combined into wells of a microtiter plate so that the concentration of one drug increases as that of the other decreased. Two rows consisting of serial dilutions of each individual drug were also included. Comparison of the MICs of the individual antifungal agents to the MIC of the combined agents was indicative of their relative efficacy.
(§6) [formula] The combination of two drugs was reported as synergistic (<0.5), additive (0.5<FICI <1.0), indifferent (1.0<FICI <4.0), or antagonistic (.4.0).

Series [2] deals with Pseudomonas aeruginosa isolates. Described as above. The format is cell-based. On the procedure: as §1, §2, §3, §4, §5, §6
For series [3], the system named is Candida albicans isolates. The series is described as above. The format is cell-based. On the procedure: as §1, §2, §3, §4, §5, §6
Series [4] is described as follows: Polymerization of tetraethylene glycol dimethacrylate (gel formation) as a test of BP radical activity. The format is physicochemical. Conditions: agent in combination with BP, 3% w/w in tetraethylene glycol dimethacrylate, oven 90 to 100 degrees Celsius. The text has this: Methods: Polymerization of tetra ethylene glycol dimethacrylate was used as a test of BP radical activity. Solutions of BP, antibiotics, and BP and antibiotics were made at 3% w/w in tetraethylene glycol dimethacrylate. All of the antibiotics except erythromycin (ERY) were obtained from prescription pills, which were crushed in a crucible. The portion of the pills that disolved in tetraethylene glycol dimethacrylate were used in the experiment. ERY was obtained in powdered form from Benzamycin® acne treatments. Aliquots of ten drops of these solutions were placed in an eight well plastic plate. The samples were heated in an oven that maintained a temperature range between 90 to 100 degrees Celsius. After various amounts of time the samples were taken out of the oven and tested for gel formation. Polymerization of tetraethylene glycol dimethacrylate was detected visually by swirling a spatula in the solutions. Gelling constituted an indicator of BP radical activity.

[5] abbreviates: S. aureus (n = 2), individual compound.
Setting [6] is: Ps. aeruginosa (n = 2), individual compound.
[7] abbreviates: C. albicans (n = 10), individual compound.

Turning to `O=C(OOC(=O)c1ccccc1)c1ccccc1` [Benzoyl Peroxide, Benzoyl peroxide], the “number of isolates with MIC of Benzoyl Peroxide 1.5%” value in series [1] (setting [5]) is reported as 2. Moreover, the “number of isolates with MIC of Benzoyl Peroxide 0.09%” value in series [2] (setting [6]) was 2. In addition, in series [3] (setting [7]), the “number of isolates with MIC of Benzoyl Peroxide 0.38%” value was determined as 6 and the “number of isolates with MIC of Benzoyl Peroxide 3.0%” value was found to be 4.
In the case of `CC[C@H]1OC(=O)[C@H](C)[C@@H](O[C@H]2C[C@@](C)(OC)[C@@H](O)[C@H](C)O2)[C@H](C)[C@@H](O[C@@H]2O[C@H](C)C[C@H](N(C)C)[C@H]2O)[C@](C)(O)C[C@@H](C)C(=O)[C@H](C)[C@@H](O)[C@]1(C)O` [ERY, erythromycin], the “effect of the agent on BP radical activity (speed of polymerization of tetraethylene glycol dimethacrylate)” value in series [4] is recorded as “polymerize the fastest”.
`CN(C/C=C/C#CC(C)(C)C)Cc1cccc2ccccc12` [Terbinafine, terbinafine]: the “number of isolates with MIC of Terbinafine >32 μg/ml” value in series [1] (setting [5]) came out at 2; in series [2] (setting [6]), 2; in series [3] (setting [7]), 9. In addition, the MIC in series [1] (Staphylococcus aureus, read-out: MIC of terbinafine alone) was > 32 µg/mL; in series [2] (Pseudomonas aeruginosa, read-out: MIC of terbinafine alone), > 32 µg/mL; in series [3] (Candida albicans, read-out: MIC of terbinafine alone) it was > 32 µg/mL. In addition, the “number of isolates with MIC of Terbinafine 8 μg/ml” value in series [3] (setting [7]) worked out at 1.
For the compound `N[C@@H]1[C@H]2CN(c3nc4c(cc3F)c(=O)c(C(=O)O)cn4-c3ccc(F)cc3F)C[C@@H]12` [trovofloxacin], the “effect of the agent on BP radical activity (speed of polymerization of tetraethylene glycol dimethacrylate)” value in series [4] was “did not augment BP radical activity”.
